Reference: patent publication US20260325487A1 (BS BIOTECHNA SPOLKA AKCYJNA, priority 2023, published 2026)
Where two headings read alike, the source gives them in different places.

Tests used:
Assay type in all cases: cell-based
LUDLU-1 [1] = experiment: SRB anti-proliferative assay, LUDLU-1, with CalcuSyn combination index (Example 1); details: Homo sapiens, LUDLU-1, 72 h, read-out: Zah. (inhibition of proliferation)
Experimental: (§1) Cells were thawed from ampoules stored in liquid nitrogen and cultured in petri dishes in appropriate culture medium according to Table 2, in a humidified 5% CO2 atmosphere at 37° C. Cells were passaged twice weekly using EDTA-Trypsin solution, pH 8. Counted cells with a viability of at least 90% as assessed with Trypan-Blue solution were used for anti-proliferative assays.
(§2) Twenty-four hours before the addition of the test compounds/combinations, cells were seeded into 384-well plates at 50 μL/well and a density of 10^3 cells/well, in the appropriate culture medium.
(§3) Solutions of the compounds were diluted in the test medium-RPMI-1640 and Opti-MEM in a 1:1 ratio, and the medium was supplemented with 2 mM glutamine and 5% fetal bovine serum FBS. After 72 h, colourimetric assessment of cell growth was performed by SRB. […] Unbound dye was removed by washing the plates (4×) in 1% (v/v) acetic acid, and protein-bound dye was extracted with 10 mM unbuffered Tris base and the optical density (A=540 nm) was determined in a BioTek Synergy H4 Hybrid computer microplate reader (BioTek Instruments USA). The entire washing/staining procedure was performed using a BioTek EL406 washing station (BioTek Instruments USA). The raw absorbance results were analysed in Microsoft Excel software using the formula:
(§4) [formula] • Where: • % Zahlnh-inhibition of proliferation • Am—absorbance of wells without cells (medium) • Ak—absorbance of control wells (cells treated with pure culture medium) • Ap—absorbance of wells treated with compounds
(§5) Each compound at the indicated concentrations was tested in triplicate in one experiment. Each experiment was repeated three times. Data analysis was supplemented with synergy assessment using CalcuSyn software. […] A CI value below 0.8 indicates synergism, 0.8-1.2 an additive effect, above 1.2 an antagonism.

NCI-H1299 = experiment: SRB anti-proliferative assay, NCI-H1299, with CalcuSyn combination index (Example 1); details: Homo sapiens, NCI-H1299, 72 h, read-out: Zah. (inhibition of proliferation)
Experimental: as §1, §2, §3, §4, §5

LUDLU-1 [2] = experiment: SRB anti-proliferative assay, LUDLU-1, molecular combination and nanoparticles, with combination index (Example III); details: Homo sapiens, LUDLU-1, read-out: Zah. (inhibition of cell proliferation)
Experimental: (§6) Cells were thawed from ampoules stored in liquid nitrogen and cultured in petri dishes in the appropriate culture medium according to Table 16, in a humidified 5% CO2 atmosphere at 37° C. Cells were passaged twice weekly using EDTA-Trypsin solution, pH 8, as a separating agent. Counted cells with a viability of at least 90% as assessed with Trypan-Blue solution were used for anti-proliferation assays.
(§7) Twenty-four hours before the addition of the test compounds/combinations, cells were seeded into 384-well plates at 50 μL/well and a density of 10^3 cells/well, in the appropriate culture medium. […] Solutions of the compounds were diluted in the test medium—RPMI-1640 and Opti-MEM in a 1:1 ratio, and the medium was supplemented with 2 mM glutamine and 5% fetal bovine serum FBS.
as §3, with “After” for “Solutions of the compounds were diluted in the test medium-RPMI-1640 and Opti-MEM in a 1:1 ratio, and the medium was supplemented with 2 mM glutamine and 5% fetal bovine serum FBS. After”
as §4, §5

NCI-H226 = experiment: SRB anti-proliferative assay, NCI-H226, molecular combination and nanoparticles, with combination index (Example III); details: Homo sapiens
Experimental: as §6, §7
as §3, with “After” for “Solutions of the compounds were diluted in the test medium-RPMI-1640 and Opti-MEM in a 1:1 ratio, and the medium was supplemented with 2 mM glutamine and 5% fetal bovine serum FBS. After”
as §4, §5

With C=CCNC1=C2C[C@@H](C)C[C@H](OC)[C@H](O)[C@@H](C)/C=C(\C)[C@H](OC(N)=O)[C@@H](OC)/C=C\C=C(/C)C(=O)NC(=CC1=O)C2=O [17AAG, 17-AAG (tanespimycin)] the inhibition at 0.0031 µM (LUDLU-1 [1]) was 6.1%, the inhibition at 0.01 µM (LUDLU-1 [1]) was 20.4% and the inhibition at 0.0314 µM (LUDLU-1 [1]) was 47.8%. For the same compound, the inhibition at 0.1 µM (LUDLU-1 [1]) was 66.9%, the inhibition at 0.3139 µM (LUDLU-1 [1]) was 74.1% and the inhibition at 1 µM (LUDLU-1 [1]) was 78.6%. The inhibition at 3.1546 µM (LUDLU-1 [1]) was 83.3%, the inhibition at 10 µM (LUDLU-1 [1]) was 86.3% and the inhibition at 0.0031 µM (NCI-H1299) was 5.1%. For the same compound, the inhibition at 0.01 µM (NCI-H1299) was 10.5%, the inhibition at 0.0314 µM (NCI-H1299) was 43.4% and the inhibition at 0.1 µM (NCI-H1299) was 80.8%. For the same compound, the inhibition at 0.3155 µM (NCI-H1299) was 93.4%, the inhibition at 1 µM (NCI-H1299) was 96.9% and the inhibition at 3.1546 µM (NCI-H1299) was 96.8%. For the same compound, the inhibition at 10 µM (NCI-H1299) was 95.3%, the inhibition at 0.0003163 µM (LUDLU-1 [2]) was 3.9% and the inhibition at 0.001 µM (LUDLU-1 [2]) was 29.3%. The inhibition at 0.0032 µM (LUDLU-1 [2]) was 61.9%, the inhibition at 0.01 µM (LUDLU-1 [2]) was 75.1% and the inhibition at 0.0316 µM (LUDLU-1 [2]) was 60.2%. For the same compound, the inhibition at 0.1 µM (LUDLU-1 [2]) was 65.7%, the inhibition at 0.3163 µM (LUDLU-1 [2]) was 76.9% and the inhibition at 1 µM (LUDLU-1 [2]) was 80.2%. For the same compound, the inhibition at 0.0032 µM (NCI-H226; NCI-H226, read-out: Inhibition of cell proliferation (Zah.), single agent, 3.2 nM) was 10.4%, the inhibition at 0.01 µM (NCI-H226; NCI-H226, read-out: Inhibition of cell proliferation (Zah.), single agent, 10 nM) was 17.2% and the inhibition at 0.0316 µM (NCI-H226; NCI-H226, read-out: Inhibition of cell proliferation (Zah.), single agent, 31.6 nM) was 29.4%. It also gave an inhibition at 0.1 µM (NCI-H226; NCI-H226, read-out: Inhibition of cell proliferation (Zah.), single agent, 100 nM) of 51.4%, an inhibition at 0.3163 µM (NCI-H226; NCI-H226, read-out: Inhibition of cell proliferation (Zah.), single agent, 316.3 nM) of 59.1% and an inhibition at 1 µM (NCI-H226; NCI-H226, read-out: Inhibition of cell proliferation (Zah.), single agent, 1000 nM) of 65%. The inhibition at 3.1625 µM (NCI-H226; NCI-H226, read-out: Inhibition of cell proliferation (Zah.), single agent, 3162.5 nM) was 69.5%, the inhibition at 10.0005 µM (NCI-H226; NCI-H226, read-out: Inhibition of cell proliferation (Zah.), single agent, 10000.5 nM) was 68.4% and the inhibition at 0.0032 µM (NCI-H226; NCI-H226, read-out: Zah. (inhibition of cell proliferation), NCI-H226 (Table 35a), compound alone, 3.2 nM) was 10.4%. It also gave an inhibition at 0.01 µM (NCI-H226; NCI-H226, read-out: Zah. (inhibition of cell proliferation), NCI-H226 (Table 35a), compound alone, 10 nM) of 17.2%, an inhibition at 0.0316 µM (NCI-H226; NCI-H226, read-out: Zah. (inhibition of cell proliferation), NCI-H226 (Table 35a), compound alone, 31.6 nM) of 29.4% and an inhibition at 0.1 µM (NCI-H226; NCI-H226, read-out: Zah. (inhibition of cell proliferation), NCI-H226 (Table 35a), compound alone, 100 nM) of 51.4%. The inhibition at 0.3163 µM (NCI-H226; NCI-H226, read-out: Zah. (inhibition of cell proliferation), NCI-H226 (Table 35a), compound alone, 316.3 nM) was 59.1%, the inhibition at 1 µM (NCI-H226; NCI-H226, read-out: Zah. (inhibition of cell proliferation), NCI-H226 (Table 35a), compound alone, 1000 nM) was 65% and the inhibition at 3.1625 µM (NCI-H226; NCI-H226, read-out: Zah. (inhibition of cell proliferation), NCI-H226 (Table 35a), compound alone, 3162.5 nM) was 69.5%. For the same compound, the inhibition at 10.0005 µM (NCI-H226; NCI-H226, read-out: Zah. (inhibition of cell proliferation), NCI-H226 (Table 35a), compound alone, 10000.5 nM) was 68.4%.
